The source of these data is patent publication EP4656186A1, “NOVEL SOLID DISPERSION AND METHOD FOR PREPARING SAME” (ST Pharm Co., Ltd., priority 2023, dated 2024).

A short description of series [1]: Pharmacokinetic test (in vivo), oral administration, plasma concentration by LC-MS/MS. Set-up: species or system rats. The following applies: 10 mg/kg. As to the method: Experimental Example 5: Confirmation of Bioavailability of Examples 1 and 6
Specifically, the drug was administered orally to rats, and blood was collected from the jugular vein at a predetermined time. The collected blood was centrifuged to separate plasma, pretreated, and then the concentration was analyzed by LC-MS/MS. Non-compartmental pharmacokinetic parameters were calculated using WinNonlin (Phoenix™, version 6.1) from the analyzed blood concentration-time data of the drug, and the results are shown in Table 3.

Series [2] can be described thus: Solubility in fasted state simulated intestinal fluid (FaSSIF). The series is classed as physicochemical. The following applies: thermodynamic from solid, After 4 hours at room temperature. An excerpt:
Experimental Example 2: Confirmation of Solubility of Examples 1 to 5 in FaSSIF
The solubility of the solid dispersions prepared in Examples 1 to 5 in fasted state simulated intestinal fluid (FaSSIF) was confirmed, and the results are shown in Table 1.
Experimental Example 4: Confirmation of Solubility of Examples 6 to 7 in FaSSIF
The solubility of the solid dispersions prepared in Examples 6 to 7 in fasted state simulated intestinal fluid (FaSSIF) was confirmed in the same manner as in Experimental Example 2, and the results are shown in Table 2.

Take `COCCOc1cc(F)c(N2CCN(c3nc4c(nnn4C)c(=O)[nH]3)CC2)c(F)c1` [Compound of Chemical Formula I]: in series [1] (relative to the compound of Chemical Formula I), the “AUClast Fold change” value worked out at 1.00. Also, in series [1] (rat, plasma), the exposure AUC(0-t) (in general, the area under the concentration-time curve up to a stated or last time point) turned out to be 5460 ng·h/mL; the Cmax (in general, the highest concentration seen after dosing) worked out at 1020 ng/mL; the Tmax (as a rule, the time at which the peak concentration occurs) was found to be 1 h; the half-life (commonly the time in which the quantity being followed falls by half) is 323 min. Besides, the solubility (commonly the concentration that dissolves in the medium under given conditions) at 4 h in series [2] (Table 1 (Experimental Example 2)) is 1.89 µg/mL. For the same compound, the solubility at 4 h in series [2] (Table 2 (Experimental Example 4)) is 1.66 µg/mL.
